# Source: ChEMBL document CHEMBL1128789, “Constrained analogs of KCVFM with improved inhibitory properties against farnesyl transferase” (Bioorg Med Chem Lett, 1995)
# Target: Protein farnesyltransferase (Rattus norvegicus, UniProt Q02293+Q04631)
# Assay: Inhibition of farnesyl transferase (FTase) of rat brain
row,Structure (SMILES),IC50
1,"CSCC[C@H](NC(=O)[C@@H]1Cc2ccccc2CN1C(=O)[C@@H]1CCCN1C(=O)[C@H](S)NC(=O)C(N)CCCCN)C(=O)O (single isomer, unassigned)",2000 nM
2,CSCC[C@H](NC(=O)[C@@H](NC(=O)[C@H](C(C)C)N(C)C(=O)[C@H](S)NC(=O)[C@H](N)CCCCN)c1ccccc1)C(=O)O,1000 nM
3,CSCC[C@H](NC(=O)[C@H](Cc1ccccc1)NC(=O)[C@H](C(C)C)N(C)C(=O)[C@H](S)NC(=O)[C@H](N)CCCCN)C(=O)O,1000 nM
4,CSCC[C@H](NC(=O)[C@H](Cc1ccccc1)NC(=O)[C@@H](NC(=O)[C@H](S)NC(=O)[C@H](N)CCCCN)C(C)C)C(=O)O,1000 nM
5,CSCC[C@H](NC(=O)[C@@H](NC(=O)[C@@H](NC(=O)[C@H](S)NC(=O)[C@H](N)CCCCN)C(C)(C)C)c1ccccc1)C(=O)O,1000 nM

# The next lines start with the values.
row,IC50,Structure (SMILES)
1,100000 nM,CSCC[C@H](NC(=O)[C@@H]1Cc2ccccc2CN1C(=O)[C@H](NC(=O)[C@H](CS)NC(=O)[C@@H](N)CCCCN)C(C)C)C(=O)O (stereo in doubt; form 1)
2,100000 nM,"CSCC[C@H](NC(=O)[C@@H]1Cc2ccccc2CN1C(=O)C(NC(=O)[C@H](S)NC(=O)C(N)CCCCN)C(C)C)C(=O)O (single isomer, unassigned; form 1)"
3,100000 nM,CSCC[C@H](NC(=O)[C@H]1Cc2ccccc2CN1C(=O)[C@H]1CCCN1C(=O)[C@H](CS)NC(=O)[C@@H](N)CCCCN)C(=O)O
4,40 nM,CSCC[C@H](NC(=O)[C@@H]1Cc2ccccc2CN1C(=O)[C@@H](NC(=O)[C@H](S)NC(=O)[C@H](N)CCCCN)C(C)(C)C)C(=O)O
5,50000 nM,CSCC[C@H](NC(=O)[C@@H]1Cc2ccccc2CN1C(=O)[C@H](NC(=O)[C@H](CS)NC(=O)[C@@H](N)CCCCN)C(C)C)C(=O)O (stereo in doubt; form 2)
6,20 nM,"CSCC[C@H](NC(=O)[C@@H]1Cc2ccccc2CN1C(=O)[C@@H](NC(=O)[C@H](S)NC(=O)C(N)CCCCN)C(C)C)C(=O)O (single isomer, unassigned)"
7,15000 nM,"CSCC[C@H](NC(=O)[C@@H]1Cc2ccccc2CN1C(=O)C(NC(=O)[C@H](S)NC(=O)C(N)CCCCN)C(C)C)C(=O)O (single isomer, unassigned; form 2)"
8,5 nM,CSCC[C@H](NC(=O)[C@@H]1Cc2ccccc2CN1C(=O)[C@H](C(C)C)N(C)C(=O)[C@H](S)NC(=O)[C@H](N)CCCCN)C(=O)O
